{"source": "patent US12660819B2", "about": "“Herbicidal derivatives” (SYNGENTA CROP PROTECTION AG, priority 2020, dated 2026)", "format_in_all_cases": "in vivo", "key": {"[1]": {"system": "Echinochloa crus-galli (ECHCG)", "experiment": "Pre-emergence Test (glasshouse, percentage damage to the plant)", "settings": "1000 g/ha unless otherwise stated, five-point scale"}, "[2]": {"system": "Ipomoea hederacea (IPOHE)", "experiment": "Pre-emergence Test (glasshouse, percentage damage to the plant)", "settings": "1000 g/ha unless otherwise stated, five-point scale"}, "Setaria faberi (SETFA) [3]": {"system": "Setaria faberi (SETFA)", "experiment": "Post-emergence Test (glasshouse, percentage damage to the plant)", "settings": "post-emergence spray, 1000 g/ha unless otherwise stated, evaluated after 13 days", "how_it_was_run": "(§1)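 Sown pots; spray 1000 g/ha (unless stated) in acetone/water 50:50 + 0.5% Tween 20; glasshouse 24/16 °C, 14 h light, 65% RH; watered twice daily; % damage read at 13 days, scored 1–5.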"}, "[4]": {"system": "Abutilon theophrasti (ABUTH)", "experiment": "Post-emergence Test (glasshouse, percentage damage to the plant)", "settings": "post-emergence spray, 1000 g/ha unless otherwise stated, evaluated after 13 days", "how_it_was_run": "(§2)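 Seeds sown in standard soil in a glasshouse (24/16 °C day/night, 14 h light, 65% humidity), then sprayed with an aqueous solution of the compound formulated in acetone/water 50:50 with 0.5% Tween 20 at 1000 g/ha unless otherwise stated. Percentage damage was scored after 13 days on a five-point scale (5=81-100%; 1=0-20%).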"}, "[5]": {"system": "Echinochloa crus-galli (ECHCG)", "experiment": "Post-emergence Test (glasshouse, percentage damage to the plant)", "settings": "post-emergence spray, 1000 g/ha unless otherwise stated, evaluated after 13 days", "how_it_was_run": "as §2"}, "[6]": {"system": "Ipomoea hederacea (IPOHE)", "experiment": "Post-emergence Test (glasshouse, percentage damage to the plant)", "settings": "post-emergence spray, 1000 g/ha unless otherwise stated, evaluated after 13 days", "how_it_was_run": "as §1"}, "[7]": {"system": "Amaranthus retoflexus (AMARE)", "experiment": "Post-emergence Test (glasshouse, percentage damage to the plant)", "settings": "post-emergence spray, 1000 g/ha unless otherwise stated, evaluated after 13 days", "how_it_was_run": "as §2"}, "Zea mays (ZEAMX) [8]": {"system": "Zea mays (ZEAMX)", "experiment": "Post-emergence Test (glasshouse, percentage damage to the plant)", "settings": "post-emergence spray, 1000 g/ha unless otherwise stated, evaluated after 13 days", "how_it_was_run": "as §1"}, "Setaria faberi (SETFA) [9]": {"system": "Setaria faberi (SETFA)", "experiment": "Pre-emergence Test (glasshouse, percentage damage to the plant)", "settings": "1000 g/ha unless otherwise stated, five-point scale"}, "[10]": {"system": "Amaranthus retoflexus (AMARE)", "experiment": "Pre-emergence Test (glasshouse, percentage damage to the plant)", "settings": "1000 g/ha unless otherwise stated, five-point scale"}, "Zea mays (ZEAMX) [11]": {"system": "Zea mays (ZEAMX)", "experiment": "Pre-emergence Test (glasshouse, percentage damage to the plant)", "settings": "1000 g/ha unless otherwise stated, five-point scale"}, "[12]": {"system": "Abutilon theophrasti (ABUTH)", "experiment": "Pre-emergence Test (glasshouse, percentage damage to the plant)", "settings": "1000 g/ha unless otherwise stated, five-point scale"}}, "data": [{"smiles": "CCc1ccc(-c2c(C)n(CC)c(-c3ccc(Cl)c(Cl)c3)c(C(=O)O)c2=O)cc1", "note": "[Compound 89, 2-(3,4-dichlorophenyl)-1-ethyl-5-(4-ethylphenyl)-6-methyl-4-oxo-pyridine-3-carboxylic acid]", "values": [{"measurement": "percentage damage to the plant, ECHCG", "setting": "[1]", "value": "1 (1=0-20%)"}, {"measurement": "percentage damage to the plant, IPOHE", "setting": "[2]", "value": "1 (1=0-20%)"}, {"measurement": "Post-emergence Test SETFA, percentage damage to the plant (five-point scale)", "setting": "Setaria faberi (SETFA) [3]", "value": "1 (1=0-20%)"}, {"measurement": "Post-emergence Test ABUTH, percentage damage to the plant (five-point scale)", "setting": "[4]", "value": "3 (3=41-60%)"}, {"measurement": "Post-emergence Test ECHCG, percentage damage to the plant (five-point scale)", "setting": "[5]", "value": "1 (1=0-20%)"}, {"measurement": "Post-emergence Test IPOHE, percentage damage to the plant (five-point scale)", "setting": "[6]", "value": "3 (3=41-60%)"}, {"measurement": "Post-emergence Test AMARE, percentage damage to the plant (five-point scale)", "setting": "[7]", "value": "1 (1=0-20%)"}, {"measurement": "Post-emergence Test ZEAMX, percentage damage to the plant (five-point scale)", "setting": "Zea mays (ZEAMX) [8]", "value": "1 (1=0-20%)"}, {"measurement": "percentage damage to the plant, SETFA", "setting": "Setaria faberi (SETFA) [9]", "value": "4 (4=61-80%)"}, {"measurement": "percentage damage to the plant, AMARE", "setting": "[10]", "value": "1 (1=0-20%)"}, {"measurement": "percentage damage to the plant, ZEAMX", "setting": "Zea mays (ZEAMX) [11]", "value": "1 (1=0-20%)"}, {"measurement": "percentage damage to the plant, ABUTH", "setting": "[12]", "value": "1 (1=0-20%)"}]}, {"smiles": "CCn1c(C)c(-c2ccc(SC)cc2)c(=O)c(C(=O)O)c1-c1ccc(Cl)c(Cl)c1", "note": "[Compound 93, 2-(3,4-dichlorophenyl)-1-ethyl-6-methyl-5-(4-methylsulfanylphenyl)-4-oxo-pyridine-3-carboxylic acid]", "values": [{"measurement": "percentage damage to the plant, ECHCG", "setting": "[1]", "value": "3 (3=41-60%)"}, {"measurement": "percentage damage to the plant, IPOHE", "setting": "[2]", "value": "1 (1=0-20%)"}, {"measurement": "Post-emergence Test SETFA, percentage damage to the plant (five-point scale)", "setting": "Setaria faberi (SETFA) [3]", "value": "2 (2=21-40%)"}, {"measurement": "Post-emergence Test ABUTH, percentage damage to the plant (five-point scale)", "setting": "[4]", "value": "2 (2=21-40%)"}, {"measurement": "Post-emergence Test ECHCG, percentage damage to the plant (five-point scale)", "setting": "[5]", "value": "3 (3=41-60%)"}, {"measurement": "Post-emergence Test IPOHE, percentage damage to the plant (five-point scale)", "setting": "[6]", "value": "2 (2=21-40%)"}, {"measurement": "Post-emergence Test AMARE, percentage damage to the plant (five-point scale)", "setting": "[7]", "value": "1 (1=0-20%)"}, {"measurement": "Post-emergence Test ZEAMX, percentage damage to the plant (five-point scale)", "setting": "Zea mays (ZEAMX) [8]", "value": "1 (1=0-20%)"}, {"measurement": "percentage damage to the plant, SETFA", "setting": "Setaria faberi (SETFA) [9]", "value": "4 (4=61-80%)"}, {"measurement": "percentage damage to the plant, AMARE", "setting": "[10]", "value": "1 (1=0-20%)"}, {"measurement": "percentage damage to the plant, ZEAMX", "setting": "Zea mays (ZEAMX) [11]", "value": "1 (1=0-20%)"}, {"measurement": "percentage damage to the plant, ABUTH", "setting": "[12]", "value": "1 (1=0-20%)"}]}, {"smiles": "CCn1c(C)c(-c2ccccc2)c(=O)c(C(=O)O)c1-c1ccc(F)cc1F", "note": "[Compound 135, 2-(2,4-difluorophenyl)-1-ethyl-6-methyl-4-oxo-5-phenyl-pyridine-3-carboxylic acid]", "values": [{"measurement": "percentage damage to the plant, ECHCG", "setting": "[1]", "value": "2 (2=21-40%)"}, {"measurement": "percentage damage to the plant, IPOHE", "setting": "[2]", "value": "3 (3=41-60%)"}, {"measurement": "Post-emergence Test SETFA, percentage damage to the plant (five-point scale)", "setting": "Setaria faberi (SETFA) [3]", "value": 0}, {"measurement": "Post-emergence Test ABUTH, percentage damage to the plant (five-point scale)", "setting": "[4]", "value": "1 (1=0-20%)"}, {"measurement": "Post-emergence Test ECHCG, percentage damage to the plant (five-point scale)", "setting": "[5]", "value": 0}, {"measurement": "Post-emergence Test IPOHE, percentage damage to the plant (five-point scale)", "setting": "[6]", "value": "1 (1=0-20%)"}, {"measurement": "Post-emergence Test AMARE, percentage damage to the plant (five-point scale)", "setting": "[7]", "value": "2 (2=21-40%)"}, {"measurement": "Post-emergence Test ZEAMX, percentage damage to the plant (five-point scale)", "setting": "Zea mays (ZEAMX) [8]", "value": 0}, {"measurement": "percentage damage to the plant, SETFA", "setting": "Setaria faberi (SETFA) [9]", "value": "5 (5=81-100%)"}, {"measurement": "percentage damage to the plant, AMARE", "setting": "[10]", "value": "1 (1=0-20%)"}, {"measurement": "percentage damage to the plant, ZEAMX", "setting": "Zea mays (ZEAMX) [11]", "value": 0}, {"measurement": "percentage damage to the plant, ABUTH", "setting": "[12]", "value": "3 (3=41-60%)"}]}, {"smiles": "CCn1c(C)c(-c2cccc(C(C)=O)c2)c(=O)c(C(=O)O)c1-c1ccc(Cl)c(Cl)c1", "note": "[Compound 112, 5-(3-acetylphenyl)-2-(3,4-dichlorophenyl)-1-ethyl-6-methyl-4-oxo-pyridine-3-carboxylic acid]", "values": [{"measurement": "percentage damage to the plant, ECHCG", "setting": "[1]", "value": "1 (1=0-20%)"}, {"measurement": "percentage damage to the plant, IPOHE", "setting": "[2]", "value": "1 (1=0-20%)"}, {"measurement": "Post-emergence Test SETFA, percentage damage to the plant (five-point scale)", "setting": "Setaria faberi (SETFA) [3]", "value": "4 (4=61-80%)"}, {"measurement": "Post-emergence Test ABUTH, percentage damage to the plant (five-point scale)", "setting": "[4]", "value": "3 (3=41-60%)"}, {"measurement": "Post-emergence Test ECHCG, percentage damage to the plant (five-point scale)", "setting": "[5]", "value": "3 (3=41-60%)"}, {"measurement": "Post-emergence Test IPOHE, percentage damage to the plant (five-point scale)", "setting": "[6]", "value": "2 (2=21-40%)"}, {"measurement": "Post-emergence Test AMARE, percentage damage to the plant (five-point scale)", "setting": "[7]", "value": "2 (2=21-40%)"}, {"measurement": "Post-emergence Test ZEAMX, percentage damage to the plant (five-point scale)", "setting": "Zea mays (ZEAMX) [8]", "value": "1 (1=0-20%)"}, {"measurement": "percentage damage to the plant, SETFA", "setting": "Setaria faberi (SETFA) [9]", "value": "4 (4=61-80%)"}, {"measurement": "percentage damage to the plant, AMARE", "setting": "[10]", "value": "1 (1=0-20%)"}, {"measurement": "percentage damage to the plant, ZEAMX", "setting": "Zea mays (ZEAMX) [11]", "value": "1 (1=0-20%)"}, {"measurement": "percentage damage to the plant, ABUTH", "setting": "[12]", "value": "2 (2=21-40%)"}]}]}
